Reference: patent publication US12264163B2, “Compounds and methods for treating fibrotic pathologies” (Mayo Foundation for Medical Education and Research, priority 2019, dated 2025)
Structures can show the parent of a compound that is named as a salt.

What was measured:
αSMA = αSMA intensity (fibroblast activation) in IPF patient-derived lung fibroblasts + TGFβ, dopaminergic agonist library; assay type: cell-based, human; conditions: 1 μM + TGFβ; for αSMA intensity (% of DMSO control): 72 hours
Method: (§1) Media was then exchanged for the indicated conditions for each experiment. […] Cells or tissue sections were incubated overnight with mouse monoclonal antibody against αSMA (Sigma-Aldrich F3777), and/or a rabbit monoclonal antibody against YAP/TAZ (Cell Signaling D24E4) diluted 1:200 in PBS with 1% BSA. Cells were then washed and exposed to flourescence-conjugated secondary antibodies (Invitrogen) diluted 1:1000 and DAPI (Thermo Fisher Scientific). Images were taken with a Cytation5 (BioTek) microscope. For scoring αSMA positive cells (FIG. 12), an observer blinded to the treatment conditions counted αSMA-positive cells using a visual threshold for bright fibrous staining; a minimum of 200 cells was counted for each condition. YAP/TAZ localization was quantified (FIGS. 6-10, 24-26, and 29-30) using Gen5 (Biotek) software. Images were taken at 4× magnification of both DAPI and YAP/TAZ staining. […] Quantification of double positive (YAP/TAZ and αSMA) cells from lung tissue sections (FIG. 17-21) was performed similarly; however separate thresholds were established for both YAP/TAZ and αSMA. A minimum of 4000 cells was quantified for each mouse.

YAP/TAZ [1] = assay: YAP/TAZ nuclear localization in IPF patient-derived lung fibroblasts treated with dopaminergic agonists; assay type: cell-based, human; conditions: 10 μM, 2 hours
Method: IPF patient-derived lung fibroblasts cells treated 2 hours prior to fixation with diverse dopaminergic agonists (10 μM). N=4 different patient samples. % nuclear localization of YAP/TAZ was determined using automated imaging software. Scale bar represents 100 μm.
as §1

YAP/TAZ [2] = assay: YAP/TAZ nuclear localization in IMR-90 and other fibroblasts / mesenchymal cells (immunofluorescence); assay type: cell-based, human
Method: Selective agonists of dopamine receptor D1 with varying efficacy inhibit YAP/TAZ nuclear localization; this effect can be overcome by treatment with a DRD1 receptor antagonist (SCH 39166, 3 μM), (Dihydrexidine, 10 μM). IMR-90 cells treated 2 hours prior to fixation. N=4 (****p<0.0001 vs. 0.10% DMSO vehicle control). Scale bar represents 100 μm.
In each case DHX treatment (10 μM) can reverse this effect on YAP/TAZ. IMR-90 cells plated densely onto plastic cell culture plates for 24 hours in media containing 0.1% FBS, treated for 2 hours prior to fixation. N=4 (****p<0.0001 vs. 0.1% DMSO vehicle control), (++++p<0.0001 vs. the respective stimulated agonist ET-1, LPA, or 5-HT). Scale bar represents 100 μm.
Mesenchymal cells derived from lung (IMR-90 and IPF-FBs) hepatic stellate cells (HSC), human adult cardiac fibroblasts, (HACF) and human dermal fibroblasts (HDF) were plated densely (Confluent) or sparsely (Control and all remaining conditions) onto plastic cell culture plates for 24 hours in media containing 0.10% FBS, treated for 2 hours with Rho kinase inhibitor Y27632, adenylate cyclase activator forskolin and DHX. N=4, Cells that were positive for nuclear YAP/TAZ were quantified by automated image analysis.
Immunofluorescence Microscopy: Cells were plated into 96 well plates (Corning 3603) in their specific growth media and allowed to attach (8 hours). Media was then exchanged for the indicated conditions for each experiment. Cells were fixed in 3.7% formalin (Sigma-Aldrich), permeabilized in 0.25% Triton X-100 (Sigma-Aldrich) and then blocked with 1% BSA for 1 h. Cells or tissue sections were incubated overnight with mouse monoclonal antibody against αSMA (Sigma-Aldrich F3777), and/or a rabbit monoclonal antibody against YAP/TAZ (Cell Signaling D24E4) diluted 1:200 in PBS with 1% BSA. Cells were then washed and exposed to flourescence-conjugated secondary antibodies (Invitrogen) diluted 1:1000 and DAPI (Thermo Fisher Scientific). Images were taken with a Cytation5 (BioTek) microscope. For scoring αSMA positive cells (FIG. 12), an observer blinded to the treatment conditions counted αSMA-positive cells using a visual threshold for bright fibrous staining; a minimum of 200 cells was counted for each condition. YAP/TAZ localization was quantified (FIGS. 6-10, 24-26, and 29-30) using Gen5 (Biotek) software. Images were taken at 4× magnification of both DAPI and YAP/TAZ staining. […] Quantification of double positive (YAP/TAZ and αSMA) cells from lung tissue sections (FIG. 17-21) was performed similarly; however separate thresholds were established for both YAP/TAZ and αSMA. A minimum of 4000 cells was quantified for each mouse.

D1 receptor = conditions: cited from earlier work

| Compound | αSMA intensity (% of DMSO control) (αSMA; IPF-1 patient fibroblasts) | αSMA intensity (% of DMSO control) (αSMA; IPF-2 patient fibroblasts) | αSMA intensity (% of DMSO control) (αSMA; IPF-3 patient fibroblasts) | αSMA intensity (% of DMSO control) (αSMA; IPF-4 patient fibroblasts) | Nuclear localization (% of total cells) (YAP/TAZ [1]; IPF-1 patient fibroblasts) | Nuclear localization (% of total cells) (YAP/TAZ [1]; IPF-2 patient fibroblasts) | Nuclear localization (% of total cells) (YAP/TAZ [1]; IPF-3 patient fibroblasts) | Nuclear localization (% of total cells) (YAP/TAZ [1]; IPF-4 patient fibroblasts) | potency of inhibition of YAP/TAZ nuclear localization, normal vs IPF lung fibroblasts (YAP/TAZ [2]; normal lung fibroblasts vs those from a patient with IPF) | activity at 1 µM (αSMA; Homo sapiens, SMA, 72 h, IPF-3 patient fibroblasts, read-out: αSMA intensity (% of DMSO control)) [%] | YAP/TAZ nuclear localization (YAP/TAZ [2]; fibroblasts / mesenchymal cells on plastic, 2 hours) | efficacy at elevating cAMP (D1 receptor) (D1 receptor) |
| --- | --- | --- | --- | --- | --- | --- | --- | --- | --- | --- | --- | --- |
| CCCN(CCC)CCc1ccc(O)c(O)c1 [Dipropyldopamine•HBr, Dipropyldopamine] | 48.72 % of DMSO control | 28.11 % of DMSO control | 40.34 % of DMSO control | 25.86 % of DMSO control | 69.18 % of total cells | 74.36 % of total cells | 65.5 % of total cells | 51.82 % of total cells | – | – | – | – |
| CCCN1CCC[C@@H]2Cc3nc(N)ncc3C[C@H]21.Cl.Cl [LY-163,502•2HCl, LY-163,502] | 88.99 % of DMSO control | 72.86 % of DMSO control | 75.3 % of DMSO control | 86.7894 % of DMSO control | 73.37 % of total cells | 60.97 % of total cells | 59.43 % of total cells | 66.49 % of total cells | – | – | – | – |
| Cc1cccc(C(=O)NCN2CCN(c3ccccc3C#N)CC2)c1.O=C(O)/C=C\C(=O)O [PD 168077 maleate, PD 168077] | 75.27 % of DMSO control | 56.15 % of DMSO control | 75.77 % of DMSO control | 66.5 % of DMSO control | 67.08 % of total cells | 42.44 % of total cells | 63.68 % of total cells | 68.4 % of total cells | – | – | – | – |
| CCCCC[C@H](O)/C=C/[C@H]1[C@H](O)CC(=O)[C@@H]1C/C=C\CCCC(=O)O [PGE2, prostaglandin E2] | – | – | – | – | – | – | – | – | reduced potency | – | – | – |
| Br.C=CCN1CCc2c(cc(O)c(O)c2Br)[C@@H](c2ccccc2)C1 [R(+)-6-BROMO-APB•HBr, R(+)-6-BROMO-APB] | 11.25 % of DMSO control | 2.507 % of DMSO control | 0.8506 % of DMSO control | 22.82 % of DMSO control | 28.37 % of total cells | 38 % of total cells | 36 % of total cells | 25.65 % of total cells | – | – | – | – |
| Br.CCCN1CCc2cc(O)cc3c2[C@H]1Cc1ccc(O)c(O)c1-3 [R(−)-2,10,11-Trihydroxy-N-propyl-noraporphine] | 4.895 % of DMSO control | 8.436 % of DMSO control | 2.988 % of DMSO control | 25.61 % of DMSO control | 32.87 % of total cells | 35.25 % of total cells | 37.7 % of total cells | 25.36 % of total cells | – | – | – | – |
| COc1ccc2c(c1O)-c1cc(O)cc3c1[C@@H](C2)N(C)CC3.Cl [R(−)-2,11-dihydroxy-10-methoxyapomorphine] | 91.84 % of DMSO control | 92.8 % of DMSO control | 81.85 % of DMSO control | 85.61 % of DMSO control | 85.18 % of total cells | 74.67 % of total cells | 80.73 % of total cells | 80.45 % of total cells | – | – | – | – |
| CCCN(CCC)CCc1cccc2c1CC(=O)N2 [Ropinirole HCl, Ropinirole] | – | – | – | – | 69.6036 % of total cells | 58.68 % of total cells | 64.66 % of total cells | 65.7 % of total cells | – | 79 | – | – |
| Oc1cc2c(c(Cl)c1O)CCNCC2c1ccccc1 (stereo not shown) [SKF-81297] | – | – | – | – | – | – | – | – | – | – | reduced nuclear localization of YAP/TAZ | – |
| Oc1ccc2c(c1O)Cc1cccc3c1[C@H]2CNC3 [dinapsoline] | – | – | – | – | – | – | – | – | – | – | – | full magnitude cAMP response |
| Oc1ccc2c(c1O)Oc1cccc3c1C2CNC3 (stereo not shown) [dinoxyline] | – | – | – | – | – | – | – | – | – | – | – | full magnitude cAMP response |
| R(−)-2,10,11-Trihydroxyaporphine [R(−)-2,10,11-Trihydroxyaporphine•HBr] | 2.888 % of DMSO control | 1.698 % of DMSO control | 7.646 % of DMSO control | 15.9942 % of DMSO control | 13.71 % of total cells | 22.15 % of total cells | 24.15 % of total cells | 17.75 % of total cells | – | – | – | – |
| R(−)-Propylnorapomorphine [R(−)-Propylnorapomorphine•HCl] | 5.081 % of DMSO control | 1.879 % of DMSO control | 5.561 % of DMSO control | 19.96 % of DMSO control | 28.35 % of total cells | 26.71 % of total cells | 42.74 % of total cells | 29.03 % of total cells | – | – | – | – |
